Laboratory results reported in ChEMBL document CHEMBL4680348, “1,2,4-Thiadiazole acyclic nucleoside phosphonates as inhibitors of cysteine dependent enzymes cathepsin K and GSK-3β” (Bioorg Med Chem, 2021).

What was measured:
[1] = system: HeLa S3; test: Cytotoxicity against human HeLa S3 cells assessed as cell viability at 10 uM incubated for 72 hrs by CellTiter-Glo luminescence based assay; type: functional; settings: read-out: Activity
[2] = Cytotoxicity against human NHDF cells assessed as cell viability at 10 uM incubated for 72 hrs by CellTiter-Glo luminescence based assay; settings: read-out: Activity
[3] = system: HepG2; test: Cytotoxicity against human HepG2 cells assessed as cell viability at 10 uM incubated for 72 hrs by CellTiter-Glo luminescence based assay; type: functional; settings: read-out: Activity
[4] = system: CCRF-CEM; test: Cytotoxicity against human CCRF-CEM cells assessed as cell viability at 10 uM incubated for 72 hrs by CellTiter-Glo luminescence based assay; type: functional; settings: read-out: Activity
[5] = system: HL-60; test: Cytotoxicity against human HL-60 cells assessed as cell viability at 10 uM incubated for 72 hrs by CellTiter-Glo luminescence based assay; type: functional; settings: read-out: Activity
[6] = system: SH-SY5Y; test: Cytotoxicity against human SH-SY5Y cells assessed as cell viability at 10 uM incubated for 72 hrs by CellTiter-Glo luminescence based assay; type: functional; settings: read-out: Activity
[7] = system: HeLa S3; test: Cytotoxicity against human HeLa S3 cells assessed as cell viability at 100 uM incubated for 72 hrs by CellTiter-Glo luminescence based assay; type: functional; settings: read-out: Activity
[8] = system: SH-SY5Y; test: Cytotoxicity against human SH-SY5Y cells assessed as cell viability at 100 uM incubated for 72 hrs by CellTiter-Glo luminescence based assay; type: functional; settings: read-out: Activity
[9] = Cytotoxicity against human NHDF cells assessed as cell viability at 100 uM incubated for 72 hrs by CellTiter-Glo luminescence based assay; settings: read-out: Activity
[10] = system: HepG2; test: Cytotoxicity against human HepG2 cells assessed as cell viability at 100 uM incubated for 72 hrs by CellTiter-Glo luminescence based assay; type: functional; settings: read-out: Activity
[11] = system: CCRF-CEM; test: Cytotoxicity against human CCRF-CEM cells assessed as cell viability at 100 uM incubated for 72 hrs by CellTiter-Glo luminescence based assay; type: functional; settings: read-out: Activity
[12] = system: HL-60; test: Cytotoxicity against human HL-60 cells assessed as cell viability at 100 uM incubated for 72 hrs by CellTiter-Glo luminescence based assay; type: functional; settings: read-out: Activity
[13] = target: T1, Cathepsin K (Homo sapiens) (UniProt P43235); test: Inhibition of recombinant human Cathepsin K expressed in Pichia pastoris X-33 assessed as residual activity at 10 uM using Z-Gly-Pro-Arg-AMC as substrate preincubated for 10 mins followed by substrate addition measured after 30 mins by fluorescence based microplate reader assay; settings: time 40.0 min
T1 sequence (whole entry): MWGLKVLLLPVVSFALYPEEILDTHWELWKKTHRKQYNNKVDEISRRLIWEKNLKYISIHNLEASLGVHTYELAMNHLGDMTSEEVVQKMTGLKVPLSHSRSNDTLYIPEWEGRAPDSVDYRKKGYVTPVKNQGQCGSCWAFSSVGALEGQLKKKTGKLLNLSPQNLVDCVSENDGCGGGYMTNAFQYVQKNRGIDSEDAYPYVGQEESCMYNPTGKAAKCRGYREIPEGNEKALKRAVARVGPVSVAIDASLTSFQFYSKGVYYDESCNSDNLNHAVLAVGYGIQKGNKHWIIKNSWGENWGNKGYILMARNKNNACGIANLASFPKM

[14] = target: Glycogen synthase kinase-3 beta (Homo sapiens, UniProt P49841); test: Inhibition of human recombinant GSK3beta using GSK3 peptide as substrate preincubated for 15 mins followed by ATP addition and measured after 90 mins by ADP-Glo kinase assay
Chain of Glycogen synthase kinase-3 beta (P49841 whole entry): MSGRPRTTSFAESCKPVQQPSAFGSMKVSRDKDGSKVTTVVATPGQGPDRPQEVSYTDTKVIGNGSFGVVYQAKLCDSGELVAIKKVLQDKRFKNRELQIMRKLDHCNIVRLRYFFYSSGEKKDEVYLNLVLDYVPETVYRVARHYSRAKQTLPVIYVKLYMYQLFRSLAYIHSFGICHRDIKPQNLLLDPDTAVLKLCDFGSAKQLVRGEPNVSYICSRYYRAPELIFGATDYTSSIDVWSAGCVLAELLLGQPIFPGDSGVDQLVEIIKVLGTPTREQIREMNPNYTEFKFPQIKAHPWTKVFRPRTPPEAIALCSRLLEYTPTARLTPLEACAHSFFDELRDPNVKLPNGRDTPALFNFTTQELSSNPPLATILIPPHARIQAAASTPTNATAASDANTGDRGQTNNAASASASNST

| SMILES | viability at 10 µM [1] [%] | viability at 72 h, 10 µM [2] [%] | viability at 10 µM [3] [%] | viability at 10 µM [4] [%] | viability at 10 µM [5] [%] | viability at 10 µM [6] [%] | viability at 100 µM [7] [%] | viability at 100 µM [8] [%] | viability at 72 h, 100 µM [9] [%] | viability at 100 µM [10] [%] | viability at 100 µM [11] [%] | viability at 100 µM [12] [%] | Activity [13] [%] | IC50 [14] [µM] |
| --- | --- | --- | --- | --- | --- | --- | --- | --- | --- | --- | --- | --- | --- | --- |
| O=c1sn(-c2cccc3ccccc23)c(=O)n1Cc1ccccc1 [TIDEGLUSIB] | 69 | 57 | 92 | 30 | 34 | 80 | – | – | – | – | – | – | – | – |
| CC(C)OP(=O)(COCCOc1nsc(N)n1)OC(C)C | 97 | 104 | 100 | 114 | 103 | 98 | 98 | 55 | 114 | 99 | 103 | 108 | 78.3 | > 10 |
| CC(C)OP(=O)(COCCOc1nsc(/N=C/N(C)C)n1)OC(C)C | 101 | 101 | 99 | 106 | 97 | 101 | 89 | 87 | 99 | 90 | 93 | 98 | 52.9 | > 10 |
| CCOC(=O)Nc1nc(=O)n(C[C@@H](CO)OCP(=O)(OC(C)C)OC(C)C)s1 | 90 | 104 | 101 | 67 | 97 | 104 | 87 | 104 | 100 | 93 | 45 | 101 | 83.4 | > 10 |
| CC(=O)Nc1nc(=O)[nH]s1 | 97 | 99 | 103 | 104 | 105 | 102 | 102 | 99 | 105 | 88 | 102 | 108 | 76.6 | > 10 |
| O=C(Nc1nc(=O)n(C[C@@H](CO)OCP(=O)(O)O)s1)c1ccccc1 | 97 | 105 | 101 | 72 | 103 | 101 | 101 | 103 | 98 | 100 | 61 | 106 | 92.3 | > 10 |
| O=C(Nc1nc(=O)n(CCOCP(=O)(O)O)s1)c1ccccc1 | 101 | 103 | 100 | 98 | 102 | 104 | 101 | 105 | 102 | 100 | 100 | 113 | 90.3 | > 10 |
| O=C(Nc1nc(=O)[nH]s1)c1ccccc1 | 99 | 104 | 99 | 102 | 101 | 103 | 101 | 90 | 100 | 77 | 96 | 110 | 85 | > 10 |
| CC(C)OP(=O)(COCCn1sc(NC(=O)c2ccccc2)nc1=O)OC(C)C | 101 | 103 | 103 | 100 | 104 | 104 | 100 | 101 | 101 | 101 | 94 | 115 | 80.6 | > 10 |
| O=C(Nc1nc(=O)n(C[C@@H](CO)OCP(=O)(O)O)s1)OCC1c2ccccc2-c2ccccc21 | 98 | 98 | 106 | 88 | 93 | 99 | 99 | 93 | 95 | 88 | 119 | 100 | 85.5 | > 10 |
| Nc1nc(OCCOCP(=O)(O)O)ns1 | 101 | 105 | 97 | 113 | 103 | 101 | 102 | 99 | 96 | 93 | 112 | 100 | 90 | > 10 |
| CC(C)OP(=O)(CO[C@H](CO)Cn1sc(NC(=O)c2ccccc2)nc1=O)OC(C)C | 97 | 103 | 109 | 86 | 106 | 100 | 105 | 97 | 104 | 99 | 97 | 118 | 92.9 | > 10 |
| CCOC(=O)Nc1nc(=O)n(C[C@@H](CO)OCP(=O)(O)O)s1 | 97 | 101 | 99 | 94 | 95 | 100 | 94 | 99 | 99 | 89 | 114 | 99 | 97.5 | > 10 |
| O=C(Nc1nc(=O)n(CCOCP(=O)(O)O)s1)OCC1c2ccccc2-c2ccccc21 | 97 | 93 | 105 | 85 | 102 | 102 | 102 | 99 | 84 | 103 | 90 | 106 | 67 | > 10 |
| CCOC(=O)Nc1nc(=O)n(CCOCP(=O)(OC(C)C)OC(C)C)s1 | 100 | 101 | 104 | 92 | 102 | 105 | 101 | 104 | 98 | 100 | 98 | 111 | 86.8 | > 10 |
| Cc1cnc(-c2cnc(NCCNc3ccc(C#N)cn3)nc2-c2ccc(Cl)cc2Cl)[nH]1 [LADUVIGLUSIB] | 67 | 53 | 86 | 28 | 119 | 77 | – | – | – | – | – | – | – | – |
